# Experimental data: patent US11254676B2, “Pyrazole derivative compound and use thereof” (HANMI PHARM. CO., LTD., priority 2017, dated 2022)
# Molecular target: LSD1 (Homo sapiens (Human), UniProt O60341)
# Assay: LSD1 histone demethylase inhibition, LSD1 fluorescence analysis kit (BPS Bioscience)
# Type: biochemical
# Settings: H2O2/HRP/Amplex Red fluorescence readout
# Text: The results are expressed as an IC50 value. As for a control, GSK2879552 (available from GlaxoSmithKline USA) was used.
row,IC50,SMILES
1,311 nM,"O=C(O)c1ccc(CN2CCC(CN[C@@H]3C[C@H]3c3ccccc3)CC2)cc1 [Control, GSK2879552, reference compound]"
2,21 nM,"CN[C@@H]1CCCN(C(=O)c2cc(-c3ccc(C#N)c(F)c3)n(-c3ccc(C4CC4)cc3F)n2)C1 [Example 6, (R)-4-(1-(4-cyclopropyl-2-fluorophenyl)-3-(3-(methylamino)piperidine-1-carbonyl)-1H-pyrazole-5-yl)-2-fluorobenzonitrile]"

# Tested on: NCI-H1417 cells
# Assay: Cell growth suppression test, CellTiter-Glo Luminescent Cell Viability Assay
# Type: cell-based
# Settings: Homo sapiens, 240 h; NCI-H1417 cells treated for 10 days
# Description: Cell growth suppression effects of the synthesized compounds on NCI-H1417 cells were identified. The cells were treated with the synthesized compounds for 10 days. Then, in order to test the cell growth suppression, CellTiter-Glo Luminescent Cell Viability Assay (available from Promega, USA) was used. This test is to measure emission signals proportional to the number of ATPs based on a fixed amount of ATPs, which represents the presence of metabolically active cells, thereby determining the number of viable cells. The results are expressed as a GI50 value. As for a control, GSK2879552 (available from GlaxoSmithKline USA) was used.
row,GI50,SMILES
1,591 nM,"O=C(O)c1ccc(CN2CCC(CN[C@@H]3C[C@H]3c3ccccc3)CC2)cc1 [Control, GSK2879552, reference compound]"
2,48 nM,"CN[C@@H]1CCCN(C(=O)c2cc(-c3ccc(C#N)c(F)c3)n(-c3ccc(C4CC4)cc3F)n2)C1 [Example 6, (R)-4-(1-(4-cyclopropyl-2-fluorophenyl)-3-(3-(methylamino)piperidine-1-carbonyl)-1H-pyrazole-5-yl)-2-fluorobenzonitrile]"
3,43 nM,"COc1cc(N2CCCC2)ccc1-n1nc(C(=O)N2CCC[C@@H](N)C2)cc1-c1ccc(C#N)c(F)c1 [Example 76, (R)-4-(3-(3-aminopiperidine-1-carbonyl)-1-(2-methoxy-4-(pyrrolidine-1-yl)phenyl)-1H-pyrazole-5-yl)-2-fluorobenzonitrile]"
4,119 nM,"CC1CC(C)CN(c2ccc(-n3nc(C(=O)N4CCC[C@@H](N)C4)cc3-c3ccc(C#N)c(F)c3)c(F)c2)C1 (stereo partly drawn) [Example 82, 4-(3-((R)-3-aminopiperidine-1-carbonyl)-1-(4-(3,5-dimethylpiperidine-1-yl)-2-fluorophenyl)-1H-pyrazole-5-yl)-2-fluorobenzonitrile]"
5,71 nM,"N#Cc1ccc(-c2cc(C(=O)N3CCC[C@@H](N)C3)nn2-c2ccc(N3CCC(N4CCCCC4)CC3)cc2F)cc1F [Example 83, (R)-4-(1-(4-([1,4′-bipiperidine]-1′-yl)-2-fluorophenyl)-3-(3-aminopiperidine-1-carbonyl)-1H-pyrazole-5-yl)-2-fluorobenzonitrile]"
6,173 nM,"N#Cc1ccc(-c2cc(C(=O)N3CCC[C@@H](N)C3)nn2-c2ccc3c(c2)CCC3)cc1F [Example 88, (R)-4-(3-(3-aminopiperidine-1-carbonyl)-1-(2,3-dihydro-1H-inden-5-yl)-1H-pyrazole-5-yl)-2-fluorobenzonitrile]"

row,SMILES,GI50
1,"N#Cc1ccc(-c2cc(C(=O)N3CCC[C@@H](N)C3)nn2-c2ccc(N3CCCCC3)cc2F)cc1 [Example 77, (R)-4-(3-(3-aminopiperidine-1-carbonyl)-1-(2-fluoro-4-(piperidine-1-yl)phenyl)-1H-pyrazole-5-yl)benzonitrile]",67 nM
2,"N#Cc1ccc(-c2cc(C(=O)N3CCC[C@@H](N)C3)nn2-c2ccc(N3CCCCC3)cc2F)cc1F [Example 78, (R)-4-(3-(3-aminopiperidine-1-carbonyl)-1-(2-fluoro-4-(piperidine-1-yl)phenyl)-1H-pyrazole-5-yl)-2-fluorobenzonitrile]",34 nM
3,"N#Cc1ccc(-c2cc(C(=O)N3CCCC[C@@H](N)C3)nn2-c2ccc(N3CCCCC3)cc2F)cc1F [Example 84, (R)-4-(3-(3-aminoazepane-1-carbonyl)-1-(2-fluoro-4-(piperidine-1-yl)phenyl)-1H-pyrazole-5-yl)-2-fluorobenzonitrile]",84 nM
4,"N#Cc1ccc(-c2cc(C(=O)N3CCC[C@@H](N)C3)nn2-c2ccc3c(c2)CCC3)cc1 [Example 87, (R)-4-(3-(3-aminopiperidine-1-carbonyl)-1-(2,3-dihydro-1H-indane-5-yl)-1H-pyrazole-5-yl)benzonitrile]",142 nM
5,"CN[C@@H]1CCCN(C(=O)c2cc(-c3ccc(C#N)cc3)n(-c3ccc4c(c3)CCC4)n2)C1 [Example 89, (R)-4-(1-(2,3-dihydro-1H-inden-5-yl)-3-(3-(methylamino)piperidine-1-carbonyl)-1H-pyrazole-5-yl)benzonitrile]",71 nM
